The results in this text go back to publication PMC6530361, “Anti-tumor Efficacy Assessment of the Sigma Receptor Pan Modulator RC-106. A Promising Therapeutic Tool for Pancreatic Cancer” (Frontiers in Pharmacology, 2019).

Like-named read-outs stand apart in the source and are kept apart here.

The subject of series [1] is Capan-2. Briefly: MTS assay (cell viability, 2D). Format: cell-based. The conditions noted are these: Homo sapiens. As to the method: (§1) Pancreatic adenocarcinoma Panc-1, Capan-1, and Capan-2, cell lines were purchased by the ATCC. All cell lines were grown in culture medium composed of DMEM/Ham’s F12 (1:1; Euroclone) supplemented with fetal calf serum (10%; Euroclone), glutamine (2 mM; Euroclone), and insulin (10 μg/mL; Sigma-Aldrich, St. Louis, MO, United States). All experiments were performed on cells in the exponential growth phase and checked periodically for mycoplasma contamination by MycoAlert^TM Mycoplasma Detection Kit (Lonza, Basel, Switzerland).
(§2) Cytotoxicity was assayed using CellTiter 96® AQueous One Solution Cell Proliferation Assay (Promega, Milan, Italy). Cells were seeded onto a 96-well plate at a density of 3 × 10^3 cells per well. Cell lines were exposed to increasing concentrations of the drug, ranging from 0.1 to 100 μM. The effect of the drug was evaluated after 24, 48, and 72 h of continued exposure. Two independent experiments were performed in octuplicate. The OD of treated and untreated cells was determined at a wavelength of 490 nm using a […].
(§3) Dose response curves were created by Excel software. IC50 values were determined graphically from the plot.
On the technique in general: Tetrazolium dyes change colour on reduction, which living cells bring about.

The subject of series [2] is Panc-1. Briefly: MTS assay (cell viability, 2D). It is filed as cell-based. The conditions noted are these: Homo sapiens. As to the method: as §1, §2, §3
The subject of series [3] is Capan-1. The series is described as follows: MTS assay (cell viability, 2D). It is filed as cell-based. The conditions noted are these: Homo sapiens. As to the method: as §1, §2, §3
Series [4] has as its system Panc-1, Capan-1, and Capan-2. The series is described as follows: MTS assay, all cell lines tested. Format: cell-based. To be noted: 24, 48, and 72 h exposure. The procedure: as §1, §2, §3
Series [5] in a line: In vivo pharmacokinetic study, plasma. Also on record: species or system male CD-1 mice. The conditions noted are these: mice. The procedure: The experiments were performed in agreement with the Italian Law D. L.vo 4 marzo 2014, n. 26. The treatments involved male CD-1 mice and a unique number on the tail identified each animal. Mice were housed, in groups of four, in cages suitable for the species. After 5 days of adaptation to the local housing conditions, animals were housed in a single, exclusive, air-conditioned room to provide a minimum of 15 air changes/hour. The environmental controls were set to maintain the temperature at around 22°C and the relative humidity within the range 50 to 60%, along with an approximate 12:12 h light/dark cycle automatically controlled. Food (Mucedola Standard GLP diet) and water were available ad libitum throughout the entire duration of the study. All animals were weighted on the day of the treatment.
Mice (n = 4/time point) received an intraperitoneal administration (i.p., 10 mL/kg) of RC-106 at 10 mg/kg. CD-1 male mice were exsanguinated under anesthesia (isoflurane) from the aorta at the following time points: 5, 10, 30, 120, 240, and 480 min. Blood samples were collected in tubes containing heparin, gently mixed and immediately placed on ice. Afterward, they have been centrifuged (3500 × g, at 4°C for 15 min), the obtained plasma has been collected and transferred to individually labeled tubes and frozen at -20°C until the analysis. Plasma samples were used for quantification of RC-106. Pancreas was taken by surgical resection after 20 min from the last treatment, washed in saline, dried on paper, weighted and frozen at -20°C. The organ was homogenized using a Velp OV5 homogenizer with 20 mM ammonium formiate buffer in a ratio of 1 g of tissue per 10 mL of buffer.
20 mg/mL stock solution (s.s.) of RC-106 was prepared by dissolving the compound in DMSO. 1 mL of 5% Tween80 in H2O was slowly added to 500 μL of s.s. under stirring. Then 8.5 mL of water was gently spiked to obtain the 1 mg/mL formulation of RC-106.
Standard curves of RC-106 were prepared for plasma and pancreas homogenate, and analyzed together with each QC and unknown sample set. For the PK and pancreas distribution sample analysis, plasma and pancreas homogenate samples (50 μL) were spiked in 200 μL of IS in MeOH (0.1 μg/mL of RC-33), followed by 2 min vortex mixing. Samples were centrifuged and transferred in UFLC vials. 5 μL aliquots of the collected samples were injected into the LC-MS/MS system. Standard calibration graphs were constructed by linear least-squares regression analysis on the analyte/IS area ratio plotted against sample concentration. Calibration ranges were from 5 to 1000 ng/mL for plasma, and from 5 to 500 ng/mL for pancreas homogenate. Accuracy values were determined in triplicates at three different concentrations (high, medium, and low) in the range of linearity of the calibration curves.
Analyses were acquired on a Shimadzu AC20 UFLC system interfaced with an API 3200 Triple Quadrupole detector (AB Sciex). Data acquisition and control were performed using the Analyst^TM 6.1 (Applied Biosystems) Software. A Phenomenex Gemini-NX C18 (50 mm × 2 mm, 5 μm) column was selected to carry out the analytical evaluations. A gradient method was set up (Supplementary Table S1) and it provided the employment of water and methanol, both containing 0.1% of formic acid, at a flow rate of 0.3 mL/min. The LC eluate was directly introduced into the MS interface using the ESI in the positive ion mode. The MRM transitions m/z 181.2 were tracked (Supplementary Table S2).

Where [6] appears, read: male, CD-1, mouse, plasma, ip, 10 mg/kg.

Consider `C/C(=C\CN1CCC(Cc2ccccc2)CC1)c1ccc2ccccc2c1` [RC-106, (E)-4-benzyl-1-(3-(naphthalen-2-yl)but-2-en-1-yl)piperidine], for which the IC50 in series [1] (CAPAN-2, 24 h exposure, read-out: IC50 values 24h) was 52.6 ± 0.07 µM; in series [1] (CAPAN-2, 48 h exposure, read-out: IC50 values 48h) it was 54.2 ± 2.18 µM; in series [1] (CAPAN-2, 72 h exposure, read-out: IC50 values 72h), 53.3 ± 1.62 µM; in series [2] (PANC-1, 24 h exposure, read-out: IC50 values 24h), 55.3 ± 0.7 µM; in series [2] (PANC-1, 48 h exposure, read-out: IC50 values 48h), 51.7 ± 1.38 µM; in series [2] (PANC-1, 72 h exposure, read-out: IC50 values 72h), 52.1 ± 0.47 µM. Also, the 50% inhibitory concentration (IC50) in series [3] (CAPAN-1, 24 h exposure, read-out: IC50 values 24h) is 56.8 ± 0.98 µM; in series [3] (CAPAN-1, 48 h exposure, read-out: IC50 values 48h), 50.3 ± 3.04 µM; in series [3] (CAPAN-1, 72 h exposure, read-out: IC50 values 72h) it was 32.8 ± 3.43 µM; in series [4] it was 33 to 57 µM. The concentration in series [5] (setting [6]) peaked (Cmax) at 973 ng/mL. Besides, the AUC(0-t) in series [5] (male, CD-1, mouse, plasma, ip, 10 mg/kg, i.p., 10 mg/kg, read-out: AUC0-t, plasma (converted)) is 1130 ng·h/mL. For the same molecule, the concentration at 5 min in series [5] (male, CD-1, mouse, plasma, ip, 5 min after i.p. 10 mg/kg, read-out: plasma C) came out at 973 ng/mL. Further, the concentration at 10 min in series [5] (male, CD-1, mouse, plasma, ip, 10 min after i.p. 10 mg/kg, read-out: plasma C) was found to be 884 ng/mL. The concentration at 30 min in series [5] (male, CD-1, mouse, plasma, ip, 30 min after i.p. 10 mg/kg, read-out: plasma C) turned out to be 361 ng/mL. Further, the concentration at 120 min in series [5] (male, CD-1, mouse, plasma, ip, 120 min after i.p. 10 mg/kg, read-out: plasma C) was found to be 134 ng/mL. In series [5] (male, CD-1, mouse, plasma, ip, 240 min after i.p. 10 mg/kg, read-out: plasma C), the concentration at 240 min worked out at 76 ng/mL. In addition, in series [5] (male, CD-1, mouse, plasma, ip, 480 min after i.p. 10 mg/kg, read-out: plasma C), the concentration at 480 min amounted to 38 ng/mL. The Tmax in series [5] (setting [6]) was 5 min. In series [5] (male, CD-1, mouse, plasma, ip, i.p., 10 mg/kg, read-out: t1/2, plasma), the half-life was found to be 3.37 h. Moreover, the “AUC0-t, plasma” value in series [5] (i.p., 10 mg/kg) stood at 67987 ng·min/mL. Also, in series [5] (i.p., 10 mg/kg), the “Cmax, plasma” value turned out to be 973 ± 167 ng/mL.

As usually defined, the IC50 is the concentration at which inhibition is half-maximal. A word on the Cmax: it is the highest concentration seen after dosing. For orientation: Tmax means the time at which the peak concentration occurs.
